Reference: paper PMC10610214 (Pharmaceuticals, 2023)
“And” between values parts separate entries of the source, which are not always exact repeats. Equal values may be shown once. “Also recorded” adds a separate entry of the source.

Experiments:
AML-12 cells = assay: Hepatotoxicity in AML-12 cells (MTT); type: cell-based; conditions: 10, 30 and 50 μM
Method: The hepatotoxicity of compound 4h in normal AML-12 hepatocytes and HepG2 liver cancer cells was examined by MTT method. AML-12 cells and HepG2 cells were seeded into 96-well plates at a density of 5.0 × 10^3 cells per well, respectively. After the cells were incubated overnight, the old medium was discarded. The cells were incubated for 48 h with fresh medium containing various concentrations of the test compound. After 48 h of incubation, 20 μL of MTT (5 mg/mL) was added to each well and incubate for an additional 4 h. Formazan was dissolved with DMSO (150 μL). […]

mice = assay: LD50 determination in mice (Bliss method); type: in vivo, C57BL mice; conditions: intragastric 7 days
Method: Male C57BL mice (18–23 g; 8 weeks old) were purchased from the Experimental Center of Anhui University of Traditional Chinese Medicine. Mice were reared in a temperature and humidity controlled environment with free access to food and water, with self-adaptive rearing for 4 days.
Thirty mice were randomly divided into five groups, and the death of each group was counted after 7 days of intragastric administration (100, 80, 64, 51.2, 40.96 mg/kg). The Bliss method was used to calculate the LD50 and 95% confidence limit.

iNOS = iNOS expression in LPS-stimulated BV2 cells (Western blot); type: cell-based; conditions: 1, 2, 4 μM
Method: BV2 cells were seeded into a 6-well plate at a density of 3.0 × 10^5 cells per well. After incubation overnight, the old medium was discarded. Then, the cells were pretreated with various concentrations (1, 2, and 4 μM) of 4h for 1 h and then co-incubated with LPS (1 μg/mL) for 24 h. After incubation was completed, the cells were washed twice with PBS, and 300 μL of cell lysis buffer (RIRA lysis buffer, phosphatase inhibitor, protease inhibitor, and PMSF) was added to each well. The cells were then incubated on ice for 30 min and centrifuged at 12,000 rpm at 4 °C for 30 min to collect the supernatant. The protein content in the supernatant was detected using the BCA protein detection kit (Beyotime, Shanghai, China). Total proteins were separated by 10% SDS-PAGE and then transferred from the gel to a PVDF membrane (Sigma-Aldrich, Shanghai, China). The membranes were blocked in TBST solution containing 5% skimmed milk for 2 h. Next, the membranes were washed three times (TBST) and incubated with primary antibody dilution (Cell Signaling Technologies, Boston, MA, USA) overnight at 4 °C. Then, they were washed another three times (TBST), incubated with the secondary antibody at room temperature for 90 min, and then washed three times with TBST. The blots were visualized by a chemiluminescence imager (Tanon 5200, Shanghai, China).

Aβ1-42 = Aβ1-42 (Homo sapiens, UniProt P05067); assay: TEM of Aβ1-42 self-aggregation; conditions: 4h 100 μM, Aβ1-42 5 μM, 48 h
Sequence of Aβ1-42 (P05067 672-713 limits assumed): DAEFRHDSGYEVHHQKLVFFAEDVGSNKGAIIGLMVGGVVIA
Method: Transmission Electron Microscope (TEM) studies were performed as previously described. […] After 2 days, a copper mesh was used to adsorb the samples, then stained with phosphotungstic acid, and the Aβ1-42 self-aggregation by TEM was observed (Talos L1200C, Thermo Fisher Scientific, Waltham, MA, USA).

BV2 cells = assay: LPS-induced ROS production in BV2 cells; type: cell-based; conditions: 4h 7.5, 15, 30 μM
Method: Intracellular ROS levels was detected by the ROS assay kit (Biyuntian Biotechnology, Hang Zhou, China). […] The control group involved culturing the BV2 microglia cells in normal culture media without any treatment. Then, the cells were washed with PBS (pH 7.2) and incubated with DCFH-DA at 37 °C for 20 min. Finally, cells were washed with DMEM and the fluorescence intensity was observed under confocal laser scanning microscope.

DPPH radical scavenging = type: physicochemical; conditions: vs no-compound group
Method: DPPH is a commercially available stable organic nitrogen radical with maximum UV absorption at 515 nm. After reduction, the color of the solution fades (absorbance decreases). Therefore, this method was used to evaluate the antioxidant capacity of the compounds. In short, 50 μL of DPPH (140 μM) and 50 μL of different concentrations (10, 100, and 1000 μM) of compound 4h were added together in a 96-well plate and then incubated in the dark at 37 °C for 2 h. The absorbance was measured at 515 nm through the multifunctional microplate reader. The scavenging rate (SR) of DPPH radicals was calculated by the following formula: SR = (1 − Ac/A0) × 100%, where “Ac” is the absorbance of DPPH and the compound solution incubating, and “A0” is the absorbance of the DPPH radical-ethanol solution alone. The experimental results are expressed as the average of three tests.

[1] = Metal chelation by UV–Vis spectroscopy; type: physicochemical; conditions: 20 μM 4h, 1 equivalent CuCl2, methanol/water 1/1
Method: In the wavelength range of 200–600 nm, the metal chelating ability of compound 4h was analyzed by UV–Vis spectroscopy. Specifically, compound 4h (dissolved in DMSO) solutions were prepared with a mixture of methanol and deionized water (1/1). Stock solutions of cation salts (10 mM) were prepared with deionized water and then in the presence or absence of ZnCl2, CuCl2, AlCl3, FeSO4, MgCl2, and CaCl2 (20 μM, final concentration), respectively, and incubated with 4h (20 μM, final concentration) for 1 h at room temperature. The final volume of the reaction mixture was 2 mL. The UV absorption of the test substance was recorded in a 1 cm quartz cell.

IL-1β in BV2 cells = assay: IL-1β secretion in LPS-stimulated BV2 cells (ELISA); type: cell-based; conditions: Mus musculus, BV-2, 24 h, read-out: IL-1β inhibition IC50
Method: The cytotoxicity of compounds on BV2 cells were evaluated by MTT assay and similar to those described in Section 2.5. The NO concentrations in medium were determined using Griess Reagent assay (Beyotime) in accordance with a previously reported method. Nitrite is reduced to nitrogen oxide using Griess Reagent I. Nitrogen oxide then reacts with Griess Reagent II forming a stable product that can be detected by its absorbance at […]. The two-step assay is simple, fast, and can detect nitrite levels as low as 1 nmol/well. BV2 cells were seeded into a 48-well plate at a density of 6.0 × 10^4 cells per well. After the cells were incubated overnight, the old medium was discarded. Then, the cells were pretreated with various concentrations (10, 5, 1, 0.5, and 0.1 μM) of compounds for 1 h and then co-incubated with LPS (1 μg/mL, 30 μL/well) for 24 h. After 24 h, the cell supernatant (50 μL/well) was placed into a new 96-well plate for experiment. […] The absorbance at […] was measured by a microplate reader.
The contents of TNF-α and IL-β in the cell supernatant were measured via ELISA (Jyimei, Wuhan, China) following the manufacturer’s instructions.

O=C1c2cc(NS(=O)(=O)c3ccccc3F)ccc2-n2c1nc1ccccc1c2=O [4h]
Hepatotoxicity in AML-12 cells (AML-12 cells): had no toxicity | Mortality rate (%) (mice; 40.96 mg/kg): 0% | Number of deaths (mice; 40.96 mg/kg): 0 | Mortality rate (%) (mice; 51.2 mg/kg): 0% | Number of deaths (mice; 51.2 mg/kg): 0 | Mortality rate (%) (mice; 64 mg/kg): 16.7% | Number of deaths (mice; 64 mg/kg): 1 | Mortality rate (%) (mice; 80 mg/kg): 50% | Number of deaths (mice; 80 mg/kg): 3 | Mortality rate (%) (mice; 100 mg/kg): 66.7% | Number of deaths (mice; 100 mg/kg): 4 | iNOS expression (iNOS): significantly decreased the expression of COX-2 and iNOS | Morphology of Aβ1-42 aggregates (TEM) (Aβ1-42): aggregation of Aβ1-42 samples was remarkably reduced | Intracellular ROS levels in BV2 cells (BV2 cells): significantly reduced intracellular ROS levels | Concentration of DPPH (%) (DPPH radical scavenging; 10 μM compound): 84.76 ± 4.21% and 84.76% | Concentration of DPPH (%) (DPPH radical scavenging; 100 μM compound): 74.6 ± 2.51% | Concentration of DPPH (%) (DPPH radical scavenging; 1000 μM compound): 36.51 ± 2.78% and 36.51% | Metal chelating ability (UV–Vis) [1]: maximum absorption intensity at 261 nm was markedly reduced; also recorded: can chelate Cu^2+ | IC50 (IL-1β in BV2 cells): 1780 ± 210 nM
